Conditions: Liquid, Pendant drop shape

[Ar] [argon] + O
interfacial tension [mN/m]
Conditions	2000 kPa	5000 kPa	10000 kPa	15000 kPa	20000 kPa	25000 kPa	30000 kPa	40000 kPa	50000 kPa
298.01 K	71.6	69.7	67.4	65.3	63.3	61.9	60.7	58.6	57
323.16 K	67.1	65.7	63.2	61.1	59.4	57.9	56.5	54.5	53.3
373.28 K	58.5	57.2	55.5	53.9	52.7	51.6	50.8	49.3	48.2
448.07 K	43.1	42.5	41.3	40.3	39.5	38.8	38.3	37.3	36.6
473.53 K	37.3	36.5	35.6	34.8	34.1	33.7	33.1	32.9	32.8
